Columns and labels:
E. coli [1] = experiment: Selective inhibitory concentration of lignocellulosic compounds in LB-agar; type: cell-based, Escherichia coli; conditions: 48 hours of growth at 37° C., lowest concentration tested which prevented colony formation
Description: The inhibitory concentrations of 14 lignocellulosic compounds in LB-agar (Table 2) were determined for two versions of the E. coli strain used to create the mgDNA libraries—a strain with a control pCC1FOS fosmid insert containing E. coli genomic DNA, and an untransformed strain. […] A range of concentrations for each lignocellulosic compound were tested, based on inhibitory concentrations for E. coli previously reported (1-3).

[2] = system: oral and gut human-associated microbiome isolates; experiment: Antibiotic resistance profiling of human-associated microbiome isolates; type: cell-based, bacteria isolated from human sputum and fecal samples; conditions: for Microbiome isolates resistant, on average: 1102 oral and gut isolates, antibiotic 20 mg/L in LB
Description: Three sputum samples (oral microbiomes) and two fecal samples (gut microbiomes) were collected from three healthy volunteers at three different sampling times (day 1, 140 and 141), and fresh samples were plated on Luria broth (LB) agar. […]. Cultures were incubated for 16 hours at 37° C. and growth was assayed by absorption at 600 nm.

E. coli [3] = experiment: Kinetic growth / biomass yield analysis in liquid LB-chlor with inhibitor; type: cell-based, Escherichia coli; conditions: for Improvement in biomass yield due to selected metagenomic insert: vs E. coli control, at the inhibitor concentration giving 90% reduction of wild type biomass yield, mgFurAc/2-furoic acid, mgSyrAld/syringaldehyde, mgMetCat/4-methylcatechol; for Inhibitor concentration resulting in 90% reduction in growth yield: wild-type/control E. coli, 24 hours of growth at 37° C.
Description: […] DNA library clones conferring tolerance to each of three inhibitors were chosen for further analysis of encoded functional parts from the selected inhibitor plates. For 4-methycatechol, 5 tolerant clones each were chosen from selected mgDNA libraries 1, 3, 4, and 5 (FIG. 2A). For 2-furoic acid, 6-7 tolerant clones each were chosen from selected mgDNA libraries 1, 3 and 4 (FIG. 2A). For syringaldehyde, 10 tolerant clones each were chosen from selected mgDNA libraries 4 and 5 (FIG. 2A). Each colony was grown to saturation (16-18 hours) at 37° C. with shaking in liquid LB medium containing 12.5 μg/mL-chloramphenicol (hereon referred to as LB-chlor). Saturated cultures were diluted 1:40 in fresh LB-chlor and grown to mid-log phase (1-2 hours) at 37° C. with shaking. Log-phase cultures were inoculated (1:40) into LB-chlor containing one of three concentrations of the relevant inhibitor (4-methylcatechol: 0.2, 0.6 and 1 g/L; 2-furoic acid: 0.8, 7.9, 15 g/L; syringaldehyde: 1.55, 1.775 and 2 g/L), with concentrations chosen to sparsely span the range of previously reported inhibitory concentrations of these compounds (J. Zaldivar, L. O. Ingram, Biotechnol Bioeng 66, 203 (1999); J. Zaldivar, A. Martinez, L. O. Ingram, Biotechnol Bioeng 65, 24 (Oct. 5, 1999); J. Zaldivar, A. Martinez, L. O. Ingram, Biotechnol Bioeng 68, 524 (Jun. 5, 2000)). Biomass yield after 24 hours of growth at 37° C. with shaking was determined by end-point turbidity measurements at 600 nm using a Versamax microplate reader (Molecular Devices).
Three mgDNA clones per inhibitor with the highest biomass differential when compared to the E. coli control were chosen for kinetic growth analysis. Growth kinetics were measured at 11 concentrations per inhibitor, evenly spanning the following concentration ranges: 0-1 g/L 4-methylcatechol, 0-1.5 g/L 2-furoic acid, and 0-3 g/L syringaldehyde. Kinetic measurements were done in triplicate for each mgDNA clone and E. coli control by 600 nm measurements every 5 minutes over 24 hours at 37° C. with shaking in a Versamax microplate reader.
To determine whether the observed tolerance in the selected clones was a result of functional parts encoded by mgDNA, fosmids from the 3 kinetically characterized mgDNA clones per inhibitor were extracted using the FosmidMAX DNA Purification Kit (catalog #FMAX046, Epicentre Biotechnologies). Purified fosmids were then retransformed into an electro-competent version of the same control E. coli strain using a standard electroporation protocol. 3 transformant colonies for each of the 3 kinetically characterized mgDNA clones per inhibitor were chosen for a repeat of the inhibitor tolerance kinetic growth analysis (see above). All of the retransformed fosmids for 4-methylcatechol and 2-furoic acid and 2 of the 3 retransformed fosmids for syringaldehyde recapitulated the improved inhibitor tolerance compared to the E. coli control seen for the original mgDNA selected clones. […] Kinetic growth plots for the mgDNA clone with the best improvements in biomass yield at these concentrations per inhibitor are shown in FIG. 4, over a range of inhibitor concentrations. These selected clones were from mgDNA library 3 for 2-furoic acid (mgFurAc), library 4 for syringaldehyde (mgSyrAld), and library 3 for 4-methylcatechol (mgMetCat).

Row | Compound | Inhibitory Concentration (E. coli [1]) [g/L] | other results
1 | CCO [Ethanol] | 55.00 | 
2 | O=Cc1ccc(O)cc1 [4-hydroxy-benzaldhehyde] | 1.25 | 
3 | O=C(O)c1cn(C2CC2)c2cc(N3CCNCC3)c(F)cc2c1=O [ciprofloxacin] |  | Microbiome isolates resistant, on average [2]: 26%
4 | CC1(C)S[C@@H]2[C@H](NC(=O)C(C(=O)O)c3ccccc3)C(=O)N2[C@H]1C(=O)O (some centres unmarked) [carbenicillin] |  | Microbiome isolates resistant, on average [2]: 39%
5 | O=C(O)c1ccc(O)cc1 [4-hydrobenzoic acid] | 7.90 | 
6 | COc1cc(C=O)cc(OC)c1O [Syringaldehyde] | 1.55 | Improvement in biomass yield due to selected metagenomic insert (E. coli [3]): 5.7 fold; Inhibitor concentration resulting in 90% reduction in growth yield (E. coli [3]): 1.33 g/L
7 | COc1cc(C(=O)O)ccc1O [Vanillic acid] | 8.08 | 
8 | O=C(N[C@H](CO)[C@H](O)c1ccc([N+](=O)[O-])cc1)C(Cl)Cl [chloramphenicol] |  | Microbiome isolates resistant, on average [2]: 7%; Susceptibility of gut microbiome isolates ([2]; gut isolates from all sampling times, 20 mg/L): almost completely susceptible; O3 day 1 isolates resistant ([2]; oral microbiome O3, day 1, 20 mg/L): 87%
9 | CC(=O)O [Acetic Acid] | 5.00 | 
10 | Oc1ccc(O)cc1 [Hydroquinone] | 1.85 | 
11 | COc1cc(C=O)ccc1O [Vanillin] | 1.50 | 
12 | C[C@H]1COc2c(N3CCN(C)CC3)c(F)cc3c(=O)c(C(=O)O)cn1c23 [levofloxacin] |  | Microbiome isolates resistant, on average [2]: 22%
13 | O=CO [Formic acid] | 1.15 | 
14 | COc1cc(C(=O)O)cc(OC)c1O [Syringic acid] | 9.55 | 
15 | CC(=O)CCC(=O)O [Levulinic acid] | 3.00 | 
16 | Cc1ccc(O)c(O)c1 [Methylcatechol, 4-methylcatechol] | 0.20 | Improvement in biomass yield due to selected metagenomic insert (E. coli [3]): 6.0 fold; Inhibitor concentration resulting in 90% reduction in growth yield (E. coli [3]): 0.33 g/L
17 | O=C(O)c1ccco1 [2-Furoic acid] | 0.80 | Improvement in biomass yield due to selected metagenomic insert (E. coli [3]): 6.9 fold; Inhibitor concentration resulting in 90% reduction in growth yield (E. coli [3]): 1.05 g/L
18 | O=Cc1ccco1 [Furfural] | 2.95 | 
